Consider 13 molecules from patent publication US20230192686A1, “1H-PYRROLO[2,3-B]PYRIDINES AND PREPARATION AND USES THEREOF” (BioSplice Therapeutics, Inc., priority 2021, published 2023).

SMILES strings stand for the structures.

This assay has as its target recombinant DYRK1A kinase (Homo sapiens, UniProt Q13627). Kind of assay: DYRK1A kinase assay (Ser/Thr 18 peptide Z-lyte FRET). Format: biochemical. As to conditions: DYRK1A kinase activity; 15 μM ATP, 4 μM Ser/Thr peptide 18, one hour at room temperature. In short, it runs like this: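 Recombinant DYRK1A at 0.25 μg/mL was incubated 1 h at room temperature with 15 μM ATP, 4 μM Ser/Thr 18 peptide and compound, in duplicate, 11-point series from 10 μM. Phosphorylation was read by Z-lyte FRET after 1 h protease development, as the coumarin/fluorescein emission ratio converted to % phosphorylation. IC50 by non-linear regression.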
As usually defined, the EC50 is the concentration that produces a half-maximal response. For the molecule `CN1CCC(Nc2ncnc3ccc(-c4c[nH]c5ncc(-c6cnn(C)c6)cc45)cc23)CC1` [Compound 1074, 6-(5-(1-Methyl-1H-pyrazol-4-yl)-1H-pyrrolo[2,3-b]pyridin-3-yl)-N-(1-methylpiperidin-4-yl)quinazolin-4-amine], the EC50 was 19 nM.
With `Cc1nn(C)c(C)c1-c1cnc2[nH]cc(-c3cc(F)c4nc(C)n(C(C)C)c4c3)c2c1` [Compound 1081, 4-Fluoro-1-isopropyl-2-methyl-6-(5-(1,3,5-trimethyl-1H-pyrazol-4-yl)-1H-pyrrolo[2,3-b]pyridin-3-yl)-1H-benzo[d]imidazole], the EC50 was 2 nM.
In the case of `Cc1nc2c(F)cc(-c3c[nH]c4ncc(-c5cnn6c5CN(C)CC6)cc34)cc2n1C(C)C` [Compound 1123, 3-(3-(4-Fluoro-1-isopropyl-2-methyl-1H-benzo[d]imidazol-6-yl)-1H-pyrrolo[2,3-b]pyridin-5-yl)-5-methyl-4,5,6,7-tetrahydropyrazolo[1,5-a]pyrazine], the EC50 was 4 nM.
The value for `CN1CCn2ncc(-c3cnc4[nH]cc(-c5ccn6ncc(C(=O)Nc7cccnc7)c6c5)c4c3)c2C1` [Compound 1137, 5-(5-(5-Methyl-4,5,6,7-tetrahydropyrazolo[1,5-a]pyrazin-3-yl)-1H-pyrrolo[2,3-b]pyridin-3-yl)-N-(pyridin-3-yl)pyrazolo[1,5-a]pyridine-3-carboxamide] was 4 nM; that for `CN1CCn2ncc(-c3cnc4[nH]cc(-c5ccc6ncncc6c5)c4c3)c2C1` [Compound 1154, 6-(5-(5-Methyl-4,5,6,7-tetrahydropyrazolo[1,5-a]pyrazin-3-yl)-1H-pyrrolo[2,3-b]pyridin-3-yl)quinazoline] was 10 nM.
The result for `Cc1nc2c(F)cc(-c3c[nH]c4ncc(-c5cccnc5)cc34)cc2n1C1CCN(C)CC1` [Compound 1166, 4-Fluoro-2-methyl-1-(1-methylpiperidin-4-yl)-6-(5-(pyridin-3-yl)-1H-pyrrolo[2,3-b]pyridin-3-yl)-1H-benzo[d]imidazole] reads 3 nM; that for `CN1CCC(NC(=O)c2cnn3ccc(-c4c[nH]c5ncc(-c6cccnc6)cc45)cc23)CC1` [Compound 1178, N-(1-Methylpiperidin-4-yl)-5-(5-(pyridin-3-yl)-1H-pyrrolo[2,3-b]pyridin-3-yl)pyrazolo[1,5-a]pyridine-3-carboxamide], 6 nM; that for `O=C1CC2(CCNCC2)Oc2cc(-c3c[nH]c4ncc(-c5cccnc5)cc34)ccc21` [Compound 1192, 7-(5-(Pyridin-3-yl)-1H-pyrrolo[2,3-b]pyridin-3-yl)spiro[chromane-2,4′-piperidin]-4-one], 10 nM.
For the molecule `COc1ncnc2ccc(-c3c[nH]c4ncc(-c5cccnc5)cc34)cc12` [Compound 1197, 4-Methoxy-6-(5-(pyridin-3-yl)-1H-pyrrolo[2,3-b]pyridin-3-yl) quinazoline], the EC50 was determined as 3 nM.
The value for `CN1CCN(c2ncnc3ccc(-c4c[nH]c5ncc(-c6cccnc6)cc45)cc23)CC1` [Compound 1198, 4-(4-Methylpiperazin-1-yl)-6-(5-(pyridin-3-yl)-1H-pyrrolo[2,3-b]pyridin-3-yl)quinazoline] was 3 nM; that for `Cc1ncccc1-c1cnc2[nH]cc(-c3cc(F)c4nc(C)n(C(C)C)c4c3)c2c1` [Compound 1207, 4-Fluoro-1-isopropyl-2-methyl-6-(5-(2-methylpyridin-3-yl)-1H-pyrrolo[2,3-b]pyridin-3-yl)-1H-benzo[d]imidazole] was 2 nM.
On to `Cc1ccncc1-c1cnc2[nH]cc(-c3cc(F)c4nc(C)n(C(C)C)c4c3)c2c1` [Compound 1249, 4-Fluoro-1-isopropyl-2-methyl-6-(5-(4-methylpyridin-3-yl)-1H-pyrrolo[2,3-b]pyridin-3-yl)-1H-benzo[d]imidazole], for which the EC50 stood at 2 nM.
The result for `Cc1ccnc(C)c1-c1cnc2[nH]cc(-c3cc(F)c4nc(C)n(C(C)C)c4c3)c2c1` [Compound 1291, 6-(5-(2,4-Dimethylpyridin-3-yl)-1H-pyrrolo[2,3-b]pyridin-3-yl)-4-fluoro-1-isopropyl-2-methyl-1H-benzo[d]imidazole] reads 7 nM.
